Measured values reported in patent publication US20040138109A1, “Potent inhibitor of HCV serine protease” (Boehringer Ingelheim Pharmaceuticals, Inc., priority 2002, published 2004).

How the values were obtained:
HCV = experiment: Clinical study in patients with chronic HCV infection, viral load; assay type: in vivo, human; conditions: HCV infected patients, oral formulation, within 48 hours after first administration, some patients
Procedure: (§1) In a first single rising dose trial in healthy male subjects the tolerability and pharmacokinetic parameters of Compound (1) were investigated. […] The degree of viral load reduction upon administration of Compound (1) was a significant and unexpected finding, with some patients even experiencing up to a 3 log reduction in viral load within 48 hours after the first administration of Compound (1).
The term “viral load” with respect to HCV in a mammal means the number of HCV mRNA genome copies per ml of serum present in the mammal. The viral load value can be measured, for example, by mRNA-PCR quantitation in blood samples using Cobas Amplicor HCV Monitor v 2.0 (Roche Diagnostics); Amplicor HCV v 2.0, Roche Diagnostics; HCV Transcription Mediated Amplification (TMA) assay, Bayer Diagnostics; HCV RNA Qualitative Testing (TMA) assay, Bayer Diagnostics; the HCV branched DNA (bDNA) assay version 3.0, Bayer Diagnostics; Versant HCV RNA 3.0 Assay (bDNA), Bayer Diagnostics, and Superquant assay, National Genetics Institute (Los Angeles, Calif.).
The degree of viral load reduction upon the administration of Compound (1) was a significant and unexpected finding, with some patients even experiencing up to a 3 log reduction in viral load within 48 hours after the first administration of Compound (1). […]

[1] = biological target: NS3 serine protease of HCV genotype 1a (Hepatitis C virus genotype 1a, UniProt P27958); experiment: Steady state velocity analysis with NS3 serine protease, HCV genotype 1a; assay type: biochemical; conditions: non-covalent, competitive mode of inhibition, read-out: Inhibitor constant (Ki)
Excerpt: (§2) A distinguishing feature of the Compound (1) inhibitor series is the presence of a C-terminal carboxylic acid functionality.

[2] = Oral bioavailability in animal species; assay type: in vivo; conditions: various animal species
Excerpt: as §2

[3] = biological target: NS3 serine protease of HCV genotype 1b (Hepatitis C virus genotype 1b, UniProt P26663); experiment: Steady state velocity analysis with NS3 serine protease, HCV genotype 1b; assay type: biochemical; conditions: non-covalent, competitive mode of inhibition, read-out: Inhibitor constant (Ki)
Excerpt: as §2

HCV RNA replication = HCV RNA replication in the replicon cell model system; assay type: cell-based; conditions: human cells
Excerpt: as §2

[4] = Light sensitivity of the oral solution; assay type: physicochemical; conditions: solution in PEG 400:Ethanol 80:20 w/w
Excerpt: Keep away from direct sunlight and cover with aluminium foil whenever possible.

[5] = Single rising dose trial in healthy male subjects; assay type: in vivo, human
Procedure: as §1

[6] = test system: NS3 protease-dependent polyprotein processing; experiment: NS3 protease-dependent polyprotein processing in HCV replicon-containing cells; assay type: cell-based
Excerpt: as §2

NS3 serine protease of HCV genotype 1a, sequence (P27958 1027-1657): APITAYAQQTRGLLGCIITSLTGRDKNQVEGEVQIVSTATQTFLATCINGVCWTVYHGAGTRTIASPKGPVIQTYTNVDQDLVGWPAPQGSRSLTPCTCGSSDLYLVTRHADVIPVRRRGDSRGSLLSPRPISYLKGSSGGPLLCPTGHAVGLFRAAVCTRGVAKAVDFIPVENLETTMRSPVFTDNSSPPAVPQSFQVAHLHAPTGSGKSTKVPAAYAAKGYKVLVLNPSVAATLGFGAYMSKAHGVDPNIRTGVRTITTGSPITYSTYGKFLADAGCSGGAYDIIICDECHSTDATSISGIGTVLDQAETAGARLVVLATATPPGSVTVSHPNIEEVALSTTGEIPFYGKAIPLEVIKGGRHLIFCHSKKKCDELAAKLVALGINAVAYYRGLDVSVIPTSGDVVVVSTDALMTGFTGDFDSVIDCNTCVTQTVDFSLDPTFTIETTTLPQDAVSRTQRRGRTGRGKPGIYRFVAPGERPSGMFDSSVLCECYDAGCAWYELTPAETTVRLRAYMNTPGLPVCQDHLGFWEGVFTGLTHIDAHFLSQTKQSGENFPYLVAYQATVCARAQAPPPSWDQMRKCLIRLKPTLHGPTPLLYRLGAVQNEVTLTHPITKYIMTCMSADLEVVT
NS3 serine protease of HCV genotype 1a, sequence (P27958 1658-1711): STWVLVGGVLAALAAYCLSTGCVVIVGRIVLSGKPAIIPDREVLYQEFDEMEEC
NS3 serine protease of HCV genotype 1b, sequence (P26663 1027-1657): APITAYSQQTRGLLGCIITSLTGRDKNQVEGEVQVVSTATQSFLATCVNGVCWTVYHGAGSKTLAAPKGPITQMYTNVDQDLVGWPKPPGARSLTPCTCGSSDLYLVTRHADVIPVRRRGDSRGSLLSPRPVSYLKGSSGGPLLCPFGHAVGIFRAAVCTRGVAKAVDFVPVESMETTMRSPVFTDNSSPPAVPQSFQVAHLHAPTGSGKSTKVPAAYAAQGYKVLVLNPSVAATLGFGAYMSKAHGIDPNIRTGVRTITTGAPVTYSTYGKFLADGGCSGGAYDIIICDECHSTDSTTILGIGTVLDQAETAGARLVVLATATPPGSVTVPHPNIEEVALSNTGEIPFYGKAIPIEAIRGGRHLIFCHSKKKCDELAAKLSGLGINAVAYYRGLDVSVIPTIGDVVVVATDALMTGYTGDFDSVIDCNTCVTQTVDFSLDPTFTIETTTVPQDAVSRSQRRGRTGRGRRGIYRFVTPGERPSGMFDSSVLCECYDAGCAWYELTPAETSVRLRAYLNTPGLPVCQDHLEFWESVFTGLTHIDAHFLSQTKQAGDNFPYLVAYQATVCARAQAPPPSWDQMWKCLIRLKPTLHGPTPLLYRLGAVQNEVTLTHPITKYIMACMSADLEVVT
NS3 serine protease of HCV genotype 1b, sequence (P26663 1658-1711): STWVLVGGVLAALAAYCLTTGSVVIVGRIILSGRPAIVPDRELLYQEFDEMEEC

With COc1ccc2c(O[C@@H]3C[C@H]4C(=O)N[C@]5(C(=O)O)C[C@H]5/C=C\CCCCC[C@H](NC(=O)OC5CCCC5)C(=O)N4C3)cc(-c3csc(NC(C)C)n3)nc2c1 [Compound (1)] as the compound, how does the “Reduction in viral load” value (HCV) read?
The value was no more than 3 log.

What about the Ki [1] of the same compound?
The Ki was 0.3 nM.

What about the Oral bioavailability [2] of the same compound?
The Oral bioavailability was “orally bioavailable”.

And the Ki [3]?
The Ki was 0.66 nM.

And the “Inhibition of HCV RNA replication” value (HCV RNA replication)?
Its value is “low nanomolar inhibition”.

And the Light sensitivity [4]?
Its Light sensitivity is “light sensitive”.

And the Tolerability [5]?
Its Tolerability is “well tolerated up to 2000 mg”.

What about the “Ability to block NS3 protease-dependent polyprotein processing” value [6] of the same compound?
Its value is “block NS3 protease-dependent polyprotein processing”.
